Experimental data: paper PMC9987361, “Interaction of hemorphins with ACE homologs” (Scientific Reports, 2023)
Where two headings read alike, the source gives them in different places. No end group written: not given here.

Assays:
ACE1 = molecular target: T1, ACE1 (Homo sapiens, UniProt P12821); assay: In vitro ACE1 inhibition assay (colorimetric ACE1 Kit-WST, absorbance 450 nm); assay type: biochemical
T1 construct: purchased Dojindo Laboratories
Protocol: ACE1 inhibition was measured using the absorbance-based colorimetric ACE1 Kit-WST (Dojindo Laboratories, Mashiki-machi, Japan) according to the kit instructions. […] The 18 peptides (Table 2) were initially screened in a single run at concentrations of 0, 10, 50, 100, 200, and 500 µM. […] In a 96-well microplate, 20 µL of each hemorphin concentration was pipetted into each well. In addition, 20 µL and 40 µL of deionized water were pipetted into blank 1 and blank 2 wells, respectively, and 20 µL of substrate buffer and 20 µL of enzyme working solution were pipetted into each sample well and blank 1 well.
The microplate was incubated at 37 °C for 1 h. After incubation, 200 µL of indicator working solution was pipetted to each well and then incubated for 5 min at room temperature.
The absorbance was then measured at 450 nm using a Glomax Discover Microplate Reader (Promega, Madison, WI, USA). ACE1 inhibition was measured using the equation given below: Inhibitionrate%=Blank1-Sample/Blank1-Blank2×100 where Blank1 (without a sample but with enzyme working solution) and Blank2 (without a sample and no enzyme working solution) are 20 µL and 40 µL deionized water, respectively.
The half-maximal inhibitory concentration (IC50) was determined using GraphPad Prism version 9 (GraphPad, San Diego, CA) from a nonlinear regression inhibition plot against the peptide concentration.

ACE2 = test system: ACE2; set-up: method as in printed at the sentence; settings: clinically used ACE1 inhibitors; background statement, ref not given; cited from earlier work
[1] = Dissolution of purchased peptides during sample preparation; assay type: physicochemical; settings: sample preparation for ACE1 screening
Protocol: All the purchased peptides were screened in an initial run at 0, 10, 50, 100, 200, and 500 µM.

[2] = IC50 (μM) ± SD against ACE1, mean ± SD of three independent experiments (triplicate runs)
[3] = IC50 values of initial single-run peptide screening, single run at 0, 10, 50, 100, 200 and 500 µM, unit not given for IC50

T1 sequence (P12821 30-1306): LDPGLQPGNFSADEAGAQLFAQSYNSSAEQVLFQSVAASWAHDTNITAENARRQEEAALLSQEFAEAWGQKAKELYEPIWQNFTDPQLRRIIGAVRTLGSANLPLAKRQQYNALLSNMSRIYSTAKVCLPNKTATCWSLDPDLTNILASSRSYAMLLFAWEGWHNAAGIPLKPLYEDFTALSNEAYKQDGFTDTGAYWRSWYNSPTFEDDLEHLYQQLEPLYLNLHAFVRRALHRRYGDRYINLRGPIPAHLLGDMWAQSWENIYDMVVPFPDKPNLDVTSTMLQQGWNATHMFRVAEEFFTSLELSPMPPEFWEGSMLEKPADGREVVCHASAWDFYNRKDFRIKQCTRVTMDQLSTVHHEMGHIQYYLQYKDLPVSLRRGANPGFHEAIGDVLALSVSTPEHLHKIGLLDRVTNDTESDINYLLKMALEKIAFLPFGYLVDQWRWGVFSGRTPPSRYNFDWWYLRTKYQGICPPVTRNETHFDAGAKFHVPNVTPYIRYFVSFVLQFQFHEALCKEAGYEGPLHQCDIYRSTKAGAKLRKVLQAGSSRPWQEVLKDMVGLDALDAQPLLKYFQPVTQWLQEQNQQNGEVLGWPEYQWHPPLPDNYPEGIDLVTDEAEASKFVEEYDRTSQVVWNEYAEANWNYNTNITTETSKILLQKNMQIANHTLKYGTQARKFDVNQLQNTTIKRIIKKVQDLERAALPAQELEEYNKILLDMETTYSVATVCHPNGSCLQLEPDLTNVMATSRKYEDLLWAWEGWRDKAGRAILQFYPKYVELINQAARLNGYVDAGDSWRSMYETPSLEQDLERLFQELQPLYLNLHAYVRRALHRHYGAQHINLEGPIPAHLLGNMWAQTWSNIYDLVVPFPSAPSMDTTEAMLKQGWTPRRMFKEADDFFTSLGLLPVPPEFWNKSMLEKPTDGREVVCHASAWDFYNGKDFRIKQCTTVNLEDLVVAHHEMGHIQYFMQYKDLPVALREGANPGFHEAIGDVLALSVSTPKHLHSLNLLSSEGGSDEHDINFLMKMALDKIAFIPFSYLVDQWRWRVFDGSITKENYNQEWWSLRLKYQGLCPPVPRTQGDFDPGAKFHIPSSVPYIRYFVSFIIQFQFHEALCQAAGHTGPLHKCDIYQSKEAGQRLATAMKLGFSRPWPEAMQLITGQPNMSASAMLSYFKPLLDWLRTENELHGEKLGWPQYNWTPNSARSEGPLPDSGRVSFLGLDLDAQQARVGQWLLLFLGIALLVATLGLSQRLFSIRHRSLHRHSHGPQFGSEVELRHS

Molecule | IC50 (ACE1; [2]) [µM] | IC50 (ACE1; [3]) [µM] | also measured
CC(C)C[C@H](N)C(=O)N[C@H](C(=O)N[C@H](C(=O)N[C@@H](Cc1ccc(O)cc1)C(=O)N1CCC[C@H]1C(=O)N[C@@H](Cc1c[nH]c2ccccc12)C(=O)N[C@H](C(=O)N[C@@H](CCCNC(=N)N)C(=O)N[C@@H](CCCNC(=N)N)C(=O)N[C@@H](Cc1ccccc1)C(=O)O)[C@@H](C)O)C(C)C)C(C)C [Camel LVVHem7] | 11.1 ± 2.18 | 25.8 | –
CC(C)C[C@H](N)C(=O)N[C@H](C(=O)N[C@H](C(=O)N[C@@H](Cc1ccc(O)cc1)C(=O)N1CCC[C@H]1C(=O)N[C@@H](Cc1c[nH]c2ccccc12)C(=O)N[C@H](C(=O)N[C@@H](CCC(N)=O)C(=O)N[C@@H](CCCNC(=N)N)C(=O)N[C@@H](Cc1ccccc1)C(=O)O)[C@@H](C)O)C(C)C)C(C)C [LVVHem7] | 13.1 ± 2.87 | 29.3 | –
C[C@H](CS)C(=O)N1CCC[C@H]1C(=O)O [captopril] | – | – | Activity against ACE2 (ACE2): inactivity
NCCCC[C@H](N[C@@H](CCc1ccccc1)C(=O)O)C(=O)N1CCC[C@H]1C(=O)O [lisinopril] | – | – | Activity against ACE2 (ACE2): inactivity
LVVYPWTQ [LVVHem5] | 20.1 ± 1.33 | 36.7 | –
LVVYPWTQR [LVVHem6] | 6.45 | 14.9 | –
LVVYPWTR [Camel LVVHem5] | 6.88 ± 1.89 | 21.2 | –
LVVYPWTRR [Camel LVVHem6] | 5.12 ± 0.7 | 25.9 | –
Tyr-Pro-Trp-Thr [Hem4] | – | – | IC50 values of initial single-run peptide screening (ACE1; single run at 0, 10, 50, 100, 200 and 500 µM, unit not given for IC50): No IC50
Tyr-Pro-Trp-Thr-Gln (YPWTQ; printed: Tyr-Pro-Trp-Thr-Gln) [Hem5] | – | – | Dissolution during sample preparation [1]: did not dissolve
VVYPWTQR [VVHem6] | 12.7 | 30.3 | –
VVYPWTRR [Camel VVHem6] | – | 44.1 | –
VVYPWTRRF [Camel VVHem7] | – | 51.4 | –
YPWTQR [Hem6, Tyr-Pro-Trp-Thr-Gln-Arg] | – | 80.2 | –
YPWTQRF [Hem7, Tyr-Pro-Trp-Thr-Gln-Arg-Phe] | – | 95.1 | –
YPWTR [Camel Hem5, Tyr-Pro-Trp-Thr-Arg] | – | – | IC50 (ACE1): 78.8 µM
YPWTRR [Camel Hem6] | – | – | Dissolution during sample preparation [1]: did not dissolve
YPWTRRF [Camel Hem7, Tyr-Pro-Trp-Thr-Arg-Arg-Phe] | 23.6 ± 3.7 | 44.1 | –
